One assay concerns the target MRCKβ (Homo sapiens (Human), UniProt Q9Y5S2). The assay can be described thus: MRCKβ kinase assay (IMAP fluorescence polarization). The format is biochemical. The following applies: 1 μM ATP; read-out: MRCK-B Average Ki. From the text: (§1) MRCKα, MRCKβ, ROCK1 and ROCK2 Kinase Assays
In general terms: In fluorescence polarisation assays a small probe gives low polarisation when free and higher when bound to something large.

The next assay has as its target ROCK1 (Homo sapiens (Human), UniProt Q13464). To be noted: read-out: ROCK1 Average Ki; 1 μM ATP.
Another assay addresses ROCK2 (Homo sapiens (Human), UniProt O75116). Nature of the assay: ROCK2 kinase assay (IMAP fluorescence polarization). Type of assay: biochemical. To be noted: 1 μM ATP; read-out: ROCK2 Average Ki.
Another assay deals with MRCKα (Homo sapiens (Human), UniProt Q5VT25). The assay can be described thus: MRCKα kinase assay (IMAP fluorescence polarization). The following applies: 1 μM ATP; read-out: MRCK-a Average Ki. The format is biochemical.
Chain of MRCKα (Q5VT25 whole entry): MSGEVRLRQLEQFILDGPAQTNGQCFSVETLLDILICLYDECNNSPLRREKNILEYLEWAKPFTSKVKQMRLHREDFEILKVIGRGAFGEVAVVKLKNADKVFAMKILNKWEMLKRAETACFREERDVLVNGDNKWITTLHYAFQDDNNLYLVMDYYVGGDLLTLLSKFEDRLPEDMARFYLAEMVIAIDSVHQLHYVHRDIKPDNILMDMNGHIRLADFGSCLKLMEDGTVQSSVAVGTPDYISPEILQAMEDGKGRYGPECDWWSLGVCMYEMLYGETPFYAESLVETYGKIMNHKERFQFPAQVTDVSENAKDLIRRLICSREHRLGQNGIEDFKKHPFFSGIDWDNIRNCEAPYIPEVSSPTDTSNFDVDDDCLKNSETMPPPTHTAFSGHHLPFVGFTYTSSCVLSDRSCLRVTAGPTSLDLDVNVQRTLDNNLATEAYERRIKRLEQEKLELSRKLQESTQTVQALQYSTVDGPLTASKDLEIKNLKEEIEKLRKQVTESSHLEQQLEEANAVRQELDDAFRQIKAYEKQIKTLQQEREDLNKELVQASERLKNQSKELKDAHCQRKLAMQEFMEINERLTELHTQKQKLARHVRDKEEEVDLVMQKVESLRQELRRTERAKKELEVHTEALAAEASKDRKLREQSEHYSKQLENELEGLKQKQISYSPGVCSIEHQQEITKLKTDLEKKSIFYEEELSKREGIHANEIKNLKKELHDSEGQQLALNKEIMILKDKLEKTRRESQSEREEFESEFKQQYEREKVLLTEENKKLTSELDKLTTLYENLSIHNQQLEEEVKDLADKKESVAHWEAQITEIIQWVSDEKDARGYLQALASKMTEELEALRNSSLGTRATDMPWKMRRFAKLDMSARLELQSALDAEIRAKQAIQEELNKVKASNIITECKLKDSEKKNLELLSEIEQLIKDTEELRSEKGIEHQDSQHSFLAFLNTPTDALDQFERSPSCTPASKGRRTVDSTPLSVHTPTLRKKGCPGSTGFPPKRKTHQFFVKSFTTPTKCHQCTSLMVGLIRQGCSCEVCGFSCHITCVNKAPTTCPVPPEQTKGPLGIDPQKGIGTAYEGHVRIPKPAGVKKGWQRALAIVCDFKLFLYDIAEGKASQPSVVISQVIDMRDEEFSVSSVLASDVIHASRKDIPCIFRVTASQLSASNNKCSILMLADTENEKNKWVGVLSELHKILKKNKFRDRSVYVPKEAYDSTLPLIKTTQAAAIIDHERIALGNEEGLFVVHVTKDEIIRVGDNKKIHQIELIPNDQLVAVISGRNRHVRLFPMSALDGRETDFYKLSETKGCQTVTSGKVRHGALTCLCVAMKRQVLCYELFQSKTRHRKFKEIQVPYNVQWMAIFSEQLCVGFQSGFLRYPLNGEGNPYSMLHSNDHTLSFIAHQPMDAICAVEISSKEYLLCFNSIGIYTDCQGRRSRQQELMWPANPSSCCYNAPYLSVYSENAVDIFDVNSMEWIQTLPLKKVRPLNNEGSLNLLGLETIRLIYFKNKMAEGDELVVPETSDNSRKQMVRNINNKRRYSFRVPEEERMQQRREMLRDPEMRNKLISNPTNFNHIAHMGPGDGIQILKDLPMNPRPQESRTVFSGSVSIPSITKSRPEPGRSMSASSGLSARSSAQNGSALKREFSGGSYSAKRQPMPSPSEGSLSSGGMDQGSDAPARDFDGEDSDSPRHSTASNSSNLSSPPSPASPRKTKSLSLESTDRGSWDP
Excerpt: as §1

Chain of ROCK1 (Q13464 2-1354 limits assumed): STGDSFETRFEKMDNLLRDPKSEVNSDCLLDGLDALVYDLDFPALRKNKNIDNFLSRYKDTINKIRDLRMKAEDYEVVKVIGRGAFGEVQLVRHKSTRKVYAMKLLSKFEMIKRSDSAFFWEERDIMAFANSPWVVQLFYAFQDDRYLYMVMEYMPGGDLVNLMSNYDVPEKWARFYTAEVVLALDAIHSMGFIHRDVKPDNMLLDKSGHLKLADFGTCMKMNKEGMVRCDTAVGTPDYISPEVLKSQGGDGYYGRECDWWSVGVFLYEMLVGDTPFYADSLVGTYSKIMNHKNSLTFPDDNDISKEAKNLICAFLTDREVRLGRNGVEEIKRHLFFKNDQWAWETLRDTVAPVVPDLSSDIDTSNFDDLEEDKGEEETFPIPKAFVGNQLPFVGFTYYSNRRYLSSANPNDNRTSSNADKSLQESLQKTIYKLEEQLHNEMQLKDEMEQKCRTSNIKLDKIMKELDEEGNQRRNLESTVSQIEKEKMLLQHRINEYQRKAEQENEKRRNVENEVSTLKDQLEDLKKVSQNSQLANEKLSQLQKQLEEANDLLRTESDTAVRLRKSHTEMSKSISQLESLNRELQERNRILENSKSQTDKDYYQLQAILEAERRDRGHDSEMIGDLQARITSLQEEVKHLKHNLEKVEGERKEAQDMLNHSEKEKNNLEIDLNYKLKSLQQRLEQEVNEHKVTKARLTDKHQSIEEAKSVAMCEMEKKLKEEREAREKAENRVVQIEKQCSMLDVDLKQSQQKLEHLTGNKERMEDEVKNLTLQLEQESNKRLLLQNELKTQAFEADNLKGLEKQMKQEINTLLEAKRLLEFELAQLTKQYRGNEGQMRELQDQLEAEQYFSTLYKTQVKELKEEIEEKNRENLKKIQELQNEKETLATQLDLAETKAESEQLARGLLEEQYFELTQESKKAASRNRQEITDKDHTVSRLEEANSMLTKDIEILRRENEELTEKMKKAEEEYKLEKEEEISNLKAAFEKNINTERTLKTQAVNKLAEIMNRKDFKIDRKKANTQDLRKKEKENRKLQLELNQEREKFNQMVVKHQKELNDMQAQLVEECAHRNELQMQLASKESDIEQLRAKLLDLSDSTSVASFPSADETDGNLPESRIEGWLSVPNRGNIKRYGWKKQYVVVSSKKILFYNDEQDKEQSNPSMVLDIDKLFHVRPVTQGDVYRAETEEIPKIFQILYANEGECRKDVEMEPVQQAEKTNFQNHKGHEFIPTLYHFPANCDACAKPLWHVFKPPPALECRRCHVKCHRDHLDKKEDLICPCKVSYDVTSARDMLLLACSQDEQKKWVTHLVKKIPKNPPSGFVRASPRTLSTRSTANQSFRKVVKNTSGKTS
Chain of ROCK2 (O75116 whole entry): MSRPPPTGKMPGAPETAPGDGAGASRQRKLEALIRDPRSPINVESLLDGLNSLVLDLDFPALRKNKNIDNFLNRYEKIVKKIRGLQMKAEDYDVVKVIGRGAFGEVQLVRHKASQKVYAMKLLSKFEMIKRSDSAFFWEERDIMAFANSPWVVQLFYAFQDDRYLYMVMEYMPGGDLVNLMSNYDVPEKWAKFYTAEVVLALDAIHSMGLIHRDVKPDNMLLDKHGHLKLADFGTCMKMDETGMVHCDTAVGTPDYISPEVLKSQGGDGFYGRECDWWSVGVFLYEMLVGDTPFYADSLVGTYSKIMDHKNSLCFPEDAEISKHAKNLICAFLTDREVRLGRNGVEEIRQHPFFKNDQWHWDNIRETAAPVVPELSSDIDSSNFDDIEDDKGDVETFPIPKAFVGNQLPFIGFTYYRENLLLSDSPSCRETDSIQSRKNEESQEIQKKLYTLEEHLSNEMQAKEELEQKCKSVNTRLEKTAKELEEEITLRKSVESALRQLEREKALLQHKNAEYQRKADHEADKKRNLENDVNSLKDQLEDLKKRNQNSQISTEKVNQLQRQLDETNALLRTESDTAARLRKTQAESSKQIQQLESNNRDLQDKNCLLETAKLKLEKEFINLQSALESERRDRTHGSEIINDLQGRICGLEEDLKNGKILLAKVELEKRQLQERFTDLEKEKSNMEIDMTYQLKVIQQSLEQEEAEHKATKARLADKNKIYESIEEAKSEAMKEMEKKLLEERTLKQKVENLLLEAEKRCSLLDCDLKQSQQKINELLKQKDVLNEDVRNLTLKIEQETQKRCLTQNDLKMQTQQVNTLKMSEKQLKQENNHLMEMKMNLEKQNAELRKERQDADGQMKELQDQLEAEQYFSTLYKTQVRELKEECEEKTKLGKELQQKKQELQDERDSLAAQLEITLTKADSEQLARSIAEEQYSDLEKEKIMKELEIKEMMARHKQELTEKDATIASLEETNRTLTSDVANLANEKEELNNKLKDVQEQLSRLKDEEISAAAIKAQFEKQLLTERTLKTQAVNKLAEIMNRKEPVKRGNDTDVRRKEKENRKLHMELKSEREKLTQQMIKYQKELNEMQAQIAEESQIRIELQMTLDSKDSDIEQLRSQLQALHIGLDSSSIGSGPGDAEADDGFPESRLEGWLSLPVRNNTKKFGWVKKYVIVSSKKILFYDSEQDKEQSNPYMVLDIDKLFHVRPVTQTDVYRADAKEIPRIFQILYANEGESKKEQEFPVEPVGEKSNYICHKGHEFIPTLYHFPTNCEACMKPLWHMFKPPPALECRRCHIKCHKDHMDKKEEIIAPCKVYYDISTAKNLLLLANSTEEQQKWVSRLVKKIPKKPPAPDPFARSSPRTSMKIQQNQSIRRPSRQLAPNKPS
Method for ROCK2: MRCKα, MRCKβ, ROCK1 and ROCK2 assays were performed using an IMAP fluorescence polarization assay format (Molecular Devices Inc.). 8-12 nM of each kinase (Life Technologies) was incubated for 60 min at room temperature with 100 nM FAM-S6-ribosomal protein derived peptide (synthesized by Alta Biosciences, University of Birmingham UK) in the presence of 1 μM ATP and 0.5 mM MgCl2 in 20 mM Tris buffer (pH 7.4) containing 0.01% Tween-20 and 1 mM DTT (MRCKα and β); or 1 μM ATP, 10 mM MgCl2 in 20 mM Tris buffer (pH 7.5) containing 0.25 mM EGTA 0.01% Triton X-100 and 1 mM DTT (ROCK1 and ROCK2). Typically, dose response analyses were performed over concentration ranges from 0.005-100 μM. Reactions were stopped by adding 2 assay volumes of 0.25% (v/v) IMAP binding reagent in 1×IMAP binding buffer A (Molecular Devices). After 30 min incubation to allow binding reagent to bind phosphorylated peptide, fluorescence polarization was measured on a Tecan Saphire^2 plate reader at excitation (470 nm) and emission (530 nm) wavelengths.

As a reminder, the Ki is the dissociation constant of the complex between target and ligand, obtained from inhibition or displacement. On to `c1ncc(-c2c[nH]c3nccc(N4CCCC5(CCCN5)C4)c23)cn1` (stereo not shown) [Example E195, 9-(3-pyrimidin-5-yl-1H-pyrrolo[2,3-b]pyridin-4-yl)-1,9-diazaspiro[4.5]decane], for which the Ki on MRCKβ is 0.00327 µM; on ROCK1, 0.332 µM; at ROCK2, 0.174 µM; at MRCKα, 0.00469 µM.
As for `c1cc(-c2c[nH]c3nccc(N4CCCCC4)c23)[nH]n1` [Example E181, 4-(1-piperidyl)-3-(1H-pyrazol-5-yl)-1H-pyrrolo[2,3-b]pyridine], the Ki was 0.00945 µM on MRCKβ, 0.025 µM on ROCK1, 0.0155 µM at ROCK2 and 0.0091 µM at MRCKα.
On the same counts, the results for `c1ncc(-c2c[nH]c3nccc(N4CCCC5(CCCNC5)C4)c23)cn1` (stereo not shown) [Example E194, 2-(3-pyrimidin-5-yl-1H-pyrrolo[2,3-b]pyridin-4-yl)-2,8-diazaspiro[5.5]undecane] are 0.00273 µM, 0.0836 µM, 0.054 µM and 0.000652 µM.
`c1cnc(-c2c[nH]c3nccc(N4CCCC5(CCCCN5)C4)c23)cn1` (stereo not shown) [Example E189, 8-(3-pyrazin-2-yl-1H-pyrrolo[2,3-b]pyridin-4-yl)-1,8-diazaspiro[5.5]undecane]: the Ki at MRCKβ amounted to 0.00131 µM; at ROCK1, 0.643 µM; at ROCK2, 0.167 µM; at MRCKα, 0.000131 µM.
In the same order, the values of `c1cnc(-c2c[nH]c3nccc(N4CCCC5(CCCCN5)C4)c23)nc1` (stereo not shown) [Example E157, 8-(3-pyrimidin-2-yl-1H-pyrrolo[2,3-b]pyridin-4-yl)-1,8-diazaspiro[5.5]undecane] are 0.00104 µM, 100 µM, 100 µM and 0.00134 µM.
On the same counts, the results for `Cc1cnc2[nH]cc(-c3cn[nH]c3)c2c1N1CCCCC1` [Example E2, 5-methyl-4-(1-piperidyl)-3-(1H-pyrazol-4-yl)-1H-pyrrolo[2,3-b]pyridine] are 0.0364 µM, 0.207 µM, 0.102 µM and 0.0197 µM.
On the same counts, the results for `N[C@H]1CCCN(c2ccnc3[nH]cc(-c4cncnc4)c23)C1` [Example E69, (3S)-1-(3-pyrimidin-5-yl-1H-pyrrolo[2,3-b]pyridin-4-yl)piperidin-3-amine] are 0.00272 µM, 0.461 µM, 0.274 µM and 0.0045 µM.
Take `CNc1ccnc2[nH]cc(C#N)c12` [Example E37, 4-(methylamino)-1H-pyrrolo[2,3-b]pyridine-3-carbonitrile]: the Ki was 0.0399 µM on MRCKβ, 0.0438 µM at ROCK1, 0.0303 µM on ROCK2 and 0.125 µM at MRCKα.
Regarding `C[C@H]1CCCN1c1ccnc2[nH]cc(C#N)c12` [Example E111, 4-[(2S)-2-methylpyrrolidin-1-yl]-1H-pyrrolo[2,3-b]pyridine-3-carbonitrile], the Ki amounted to 0.0397 µM on MRCKβ, 0.0852 µM on ROCK1, 0.0255 µM on ROCK2 and 0.123 µM on MRCKα.
Take `CCN[C@H]1CCCN(c2ccnc3[nH]cc(-c4cnn(C)c4)c23)C1` [Example E78, (3S)-N-ethyl-1-[3-(1-methylpyrazol-4-yl)-1H-pyrrolo[2,3-b]pyridin-4-yl]piperidin-3-amine]: the Ki at MRCKβ worked out at 0.00851 µM; on ROCK1, 0.105 µM; at ROCK2, 0.0615 µM; at MRCKα, 0.00348 µM.
Consider `c1ncc(-c2c[nH]c3nccc(OC4CCCNCC4)c23)cn1` (stereo not shown) [Example E216, 4-(azepan-4-yloxy)-3-pyrimidin-5-yl-1H-pyrrolo[2,3-b]pyridine], for which the inhibition constant Ki at MRCKβ was 0.00178 µM; on ROCK1, 0.0668 µM; at ROCK2, 0.0558 µM; on MRCKα it was 0.00113 µM.
In the same order, the values of `N#Cc1c[nH]c2nccc(N3CCCC3)c12` [Example E36, 4-pyrrolidin-1-yl-1H-pyrrolo[2,3-b]pyridine-3-carbonitrile] are 0.0789 µM, 0.0906 µM, 0.0658 µM and 0.0821 µM.
On the same counts, the results for `c1cc(-c2c[nH]c3nccc(N4CCC[C@]5(CCCCN5)C4)c23)ncn1` [Example E118, (6R)-8-(3-pyrimidin-4-yl-1H-pyrrolo[2,3-b]pyridin-4-yl)-1,8-diazaspiro[5.5]undecane] are 0.00147 µM, 50.3 µM, 0.299 µM and 0.00289 µM.
On the same counts, the results for `c1ncc(-c2c[nH]c3nccc(N4CCC[C@H](N5CCCCC5)C4)c23)cn1` [Example E98, 4-[(3S)-3-(1-piperidyl)-1-piperidyl]-3-pyrimidin-5-yl-1H-pyrrolo[2,3-b]pyridine] are 0.00424 µM, 2.53 µM, 0.979 µM and 0.0079 µM.
For `c1ncc(-c2c[nH]c3nccc(N4CCC[C@H](N5CCC5)C4)c23)cn1` [Example E97, 4-[(3S)-3-(azetidin-1-yl)-1-piperidyl]-3-pyrimidin-5-yl-1H-pyrrolo[2,3-b]pyridine], the Ki is 0.00393 µM at MRCKβ, 0.686 µM at ROCK1, 0.366 µM on ROCK2 and 0.0052 µM at MRCKα.
`c1ncc(-c2c[nH]c3nccc(OC[C@@H]4CCNC4)c23)cn1` [Example E219, 3-pyrimidin-5-yl-4-[[(3R)-pyrrolidin-3-yl]methoxy]-1H-pyrrolo[2,3-b]pyridine]: the Ki on MRCKβ worked out at 0.00371 µM; on ROCK1, 0.0576 µM; on ROCK2 it was 0.0526 µM; at MRCKα it was 0.00252 µM.
In the same order, the values of `c1cc(N2CCCCC2)c2c(-c3cn[nH]c3)c[nH]c2n1` [Example E183, 4-(1-piperidyl)-3-(1H-pyrazol-4-yl)-1H-pyrrolo[2,3-b]pyridine] are 0.00603 µM, 0.031 µM, 0.0123 µM and 0.0126 µM.
As to `CN1CCCN(c2ccnc3[nH]cc(C#N)c23)CC1` [Example E30, 4-(4-methyl-1,4-diazepan-1-yl)-1H-pyrrolo[2,3-b]pyridine-3-carbonitrile], the Ki came to 0.00573 µM on MRCKβ, 0.0243 µM on ROCK1, 0.0203 µM at ROCK2 and 0.0128 µM on MRCKα.
Take `CN[C@H]1CCCN(c2ccnc3[nH]cc(-c4cncnc4)c23)C1` [Example E57, (3S)-N-methyl-1-(3-pyrimidin-5-yl-1H-pyrrolo[2,3-b]pyridin-4-yl)piperidin-3-amine]: the Ki is 0.00234 µM on MRCKβ, 50.7 µM at ROCK1, 0.545 µM at ROCK2 and 0.00293 µM at MRCKα.
In the same order, the values of `CCN[C@H]1CCCN(c2ccnc3[nH]cc(-c4cncnc4)c23)C1` [Example E79, (3S)-N-ethyl-1-(3-pyrimidin-5-yl-1H-pyrrolo[2,3-b]pyridin-4-yl)piperidin-3-amine] are 0.00227 µM, 50.7 µM, 0.448 µM and 0.00123 µM.
On the same counts, the results for `Cn1cc(-c2c[nH]c3nccc(N4CCCC5(CCCCN5)C4)c23)cn1` (stereo not shown) [Example E188, 8-[3-(1-methylpyrazol-4-yl)-1H-pyrrolo[2,3-b]pyridin-4-yl]-1,8-diazaspiro[5.5]undecane] are 0.00152 µM, 0.0936 µM, 0.0288 µM and 0.000598 µM.
`c1ncc(-c2c[nH]c3nccc(O[C@H]4CCCNC4)c23)cn1` [Example E222, 4-[[(3S)-3-piperidyl]oxy]-3-pyrimidin-5-yl-1H-pyrrolo[2,3-b]pyridine]: the Ki was determined as 0.0506 µM on MRCKβ, 50.9 µM at ROCK1, 50.7 µM on ROCK2 and 0.0284 µM at MRCKα.
In the same order, the values of `C[C@@H]1CCCN1c1ccnc2[nH]cc(C#N)c12` [Example E110, 4-[(2R)-2-methylpyrrolidin-1-yl]-1H-pyrrolo[2,3-b]pyridine-3-carbonitrile] are 0.00144 µM, 0.00278 µM, 0.00244 µM and 0.0046 µM.
In the same order, the values of `c1ncc(-c2c[nH]c3nccc(N4CCCC5(CCCCN5)C4)c23)cn1` (stereo not shown) [Example E196, 8-(3-pyrimidin-5-yl-1H-pyrrolo[2,3-b]pyridin-4-yl)-1,8-diazaspiro[5.5]undecane] are 134 µM, 0.213 µM, 0.177 µM and 0.0051 µM.
On the same counts, the results for `FC1CCN([C@H]2CCCN(c3ccnc4[nH]cc(-c5cncnc5)c34)C2)C1` (stereo partly drawn) [Example E95, 4-[(3S)-3-(3-fluoropyrrolidin-1-yl)-1-piperidyl]-3-pyrimidin-5-yl-1H-pyrrolo[2,3-b]pyridine] are 0.00698 µM, 0.689 µM, 0.395 µM and 0.0194 µM.
For `CN(C)[C@H]1CCCN(c2ccnc3[nH]cc(-c4cncnc4)c23)C1` [Example E82, (3S)-N,N-dimethyl-1-(3-pyrimidin-5-yl-1H-pyrrolo[2,3-b]pyridin-4-yl)piperidin-3-amine], the inhibitory constant (Ki) came to 0.0131 µM on MRCKβ, 0.647 µM on ROCK1, 0.362 µM at ROCK2 and 0.0172 µM on MRCKα.
On the same counts, the results for `c1cncc(-c2c[nH]c3nccc(N4CCCCC4)c23)c1` [Example E182, 4-(1-piperidyl)-3-(3-pyridyl)-1H-pyrrolo[2,3-b]pyridine] are 0.0188 µM, 0.132 µM, 0.09 µM and 0.009 µM.
`CN(C)c1ccnc2[nH]cc(C#N)c12` [Example E31, 4-(dimethylamino)-1H-pyrrolo[2,3-b]pyridine-3-carbonitrile]: the Ki on MRCKβ was found to be 0.0167 µM; on ROCK1 it was 0.0436 µM; at ROCK2, 0.0241 µM; on MRCKα, 0.0479 µM.
